According to patent US20250270648A1, “MOLECULAR SIGNATURE FOR ASSESSING THE RESPONSIVENESS OF CANCER TO MITOCHONDRIA-TARGETED ANTIOXIDANTS” (UNIVERSITÉ CATHOLIQUE DE LOUVAIN, priority 2021, published 2025):

Legend:
[1] = tested on: SkBr3 cancer cells; assay: Cell morphology, H&E; assay type: cell-based, human; conditions: MitoQ 100 to 500 nM, 48 h
Experimental: (§1) To visualize cell morphology, MDA-MB-231, SkBr3 and MDA-MB-436 cells were seeded in 24-well plates and treated ±MitoQ for 48 h, fixed in 100% methanol for 10 min stained with hematoxylin and eosin (H&E) for 10 min each, washed with water and dried. Pictures were acquired on an Axiovert 40 CFL microscope (Zeiss®) equipped with a MRC camera (Zeiss®).

[2] = tested on: MDA-MB-231 cancer cells; assay: Cell morphology, H&E; assay type: cell-based, human; conditions: MitoQ 100 to 500 nM, 48 h
Experimental: as §1

[3] = tested on: MDA-MB-231 primary tumors in mice; assay: RT-qPCR of resected primary tumors; assay type: in vivo, mouse; conditions: MitoQ 20 mg/kg daily oral
Experimental: Total mRNA from MDA-MB-231, SkBr3 and MDA-MB-436 cells treated ±MitoQ for 48 h was extracted using the NucleoSpin RNA Kit (Macherey-Nagel®). Total mRNA from primary tumors was extracted with Tri reagent (Molecular Research Center®, Cat #TR118). mRNAs were quantified by the Qubit BR dsRNA assay kit (Thermo Fisher Scientific®), and mRNA integrity was evaluated on an Agilent® 2100 Bioanalyzer with the RNA 6000 nano kit (Agilent®). It was reverse transcribed in complementary DNA using the High-Capacity cDNA Reverse Transcription Kit (Applied Biosystems®, cat #4368814) according to manufacturer's protocol. Complementary DNA (500 ng) was amplified by real time quantitative PCR (RT-qPCR) using the low ROX SYBR Master Mix dTTP Blue (Eurogentec®) and primers listed in Table 5 and Table 6 on a ViiA 7 Real-Time PCR System (Thermo Fisher Scientific®). Gene expression was normalized to β-actin gene expression.
For spontaneous metastasis assays using human breast cancer cells, MDA-MB-231, SkBr3 or MDA-MB-436 cells were prepared in medium containing 10% growth factor-reduced Matrigel (Corning®, cat #734-11-01). Five weeks-old female Rj:NMRI-Foxnlnu/nu mice (Janvier) were injected with 10^6 cancer cells in 100 μL of solution in the left second mammary fat pad. After tumor take (72 h), mice were daily treated ±20 mg/Kg MitoQ by oral gavage. Tumor size was measured once per week with an electronic caliper. Four weeks after treatment initiation, primary tumors were surgically removed and processed for RT-qPCR. Tumor recurrence was monitored until recurred tumors in the vehicle group reached about […], i.e. 24 days after surgery. At this time point, mice were sacrificed and their lungs collected and fixed in PFA 4% for immunocytochemistry.

[4] = tested on: MDA-MB-231 human breast cancer cells; assay: Metastatic take assay, tail vein injection of pretreated cells; assay type: in vivo, mouse; conditions: cells pretreated 6 h with 1 μM MitoQ
Experimental: For metastasis take assays, cancer cells were pretreated ±MitoQ for 6 h, and 10^6 viable cells were injected into the tail vein of five weeks-old female Rj:NMRI-Foxn1nu/nu mice (Janvier). After 4 weeks, mice were sacrificed and the lungs insufflated with 3 mL of Indian ink (15% in ddH2O). Mouse lungs were removed, washed with PBS and incubated overnight in Fekete's solution (700 mL/L 100% ethanol, 32 mL/L 37% formalin, 40 mL/L glacial acetic acid, diluted in ddH2O). The next morning, lungs were transferred to a 70% ethanol solution and were further examined under a Stemi 2000-C dissection stereomicroscope (Zeiss®) to count the number of metastasis per lung.

[5] = tested on: MDA-MB-231 cells; assay: Direct cell counting, MitoQ alone; assay type: cell-based, human
Experimental: (§2) To probe the effects of MitoQ alone on cell numbers, MDA-MB-231, SkBr3, MDA-MB-436 or MCF10A (2,500-10,000 cells/well) cells were plated in 96-well plates and treated with increasing concentrations of MitoQ. At each time point, the number of cells per well was measured using a SpectraMax i3 spectrophotometer equipped with a MiniMax™ imaging cytometer.

[6] = tested on: SkBr3 cells; assay: Direct cell counting, MitoQ alone; assay type: cell-based, human
Experimental: as §2

[7] = tested on: MDA-MB-436 cells; assay: Direct cell counting, MitoQ alone; assay type: cell-based, human; conditions: increasing doses of MitoQ (0 to 500 nM)
Experimental: as §2

[8] = tested on: MDA-MB-231 human breast cancer cells; assay: Mitochondrial potential, JC-10; assay type: cell-based; conditions: 48 h
Experimental: (§3) The mitochondrial potential (ΔΨ) was measured using JC-10 Mitochondrial Membrane Potential Assay Kit (Abcam®, #ab112134), according to manufacturer's recommendations. Briefly, MDA-MB-231 (10^4 cells/well), SkBr3 (10^4 cells/well), MDA-MB-436 (10^4 cells/well) or MCF10A (10^5 cells/well) cells were seeded in 96-well plates and treated for 48 h±MitoQ. Cells were then washed twice and incubated with JC-10 (1× solution) for 45 min. Fluorescence intensities were measured at 490/525 nm and […] using a SpectraMax i3 spectrophotometer equipped with a MiniMax imaging cytometer (Molecular Devices®).

[9] = tested on: SkBr3 human breast cancer cells; assay: Mitochondrial potential, JC-10; assay type: cell-based; conditions: indicated doses of MitoQ, 48 h
Experimental: as §3

SMILES: COC1=C(OC)C(=O)C(CCCCCCCCCC[P+](c2ccccc2)(c2ccccc2)c2ccccc2)=C(C)C1=O [MitoQ]
- Morphological changes [1]: not obvious
- Morphological changes [2]: not obvious
- tumor samples in which PSAT1 expression was induced [3]: 100%
- PHGDH-1 transcript upregulated in response to MitoQ: Validated in vivo ([3]; tumors resected day +32): + (Repressed or induced by ≥2-fold with P < 0.01 and MDA-MB-231 primary tumors in mice.)
- PSAT1 transcript upregulated in response to MitoQ: Validated in vivo ([3]; tumors resected day +32): + (Repressed or induced by ≥2-fold with P < 0.01 and MDA-MB-231 primary tumors in mice.)
- SERPINE1 transcript upregulated in response to MitoQ: Validated in vivo ([3]; tumors resected day +32): + (Repressed or induced by ≥2-fold with P < 0.01 and MDA-MB-231 primary tumors in mice.)
- SLC7A11 transcript upregulated in response to MitoQ: Validated in vivo ([3]; tumors resected day +32): + (Repressed or induced by ≥2-fold with P < 0.01 and MDA-MB-231 primary tumors in mice.)
- TXNRD1 transcript upregulated in response to MitoQ: Validated in vivo ([3]; tumors resected day +32): + (Repressed or induced by ≥2-fold with P < 0.01 and MDA-MB-231 primary tumors in mice.)
- fold induction at 20 mg/kg ([3]; Mus musculus, MDA-MB-231, P<0.01, read-out: fold induction of PHGDH-1, SLC7A11, SERPINE1, TXNRD1 and PSAT1 (each independently)): ≥ 2
- mice metastasis-free ([4]; at necropsy, four weeks): 36.4%
- mice with <2 metastasis ([4]; at necropsy, four weeks): 27.2%
- mice with >2 lung metastases ([4]; at necropsy, four weeks): 36.4%
- metastasis developed vs mice that received vehicle-treated cells ([4]; four weeks after injection of 10^6 cells): significantly less
- MitoQ dose starting from which cell number is reduced ([5]; doses 0 to 500 nM): ≥ 500 nM
- cell numbers, dose dependence ([5]; increasing doses of MitoQ): Dose-dependent decreases
- MitoQ dose from which cell numbers started to decrease ([6]; doses 0 to 500 nM): ≥ 250 nM
- cell numbers, dose dependence ([6]; increasing doses of MitoQ): Dose-dependent decreases
- cell numbers [7]: dose-dependently reduced
- mitochondrial potential (Δψ) ([8]; MitoQ 100 nM): decreased
- Δψ, dose dependence ([8]; indicated doses of MitoQ): dose-dependent decreases
- Δψ, dose dependence [9]: dose-dependent decreases
